The record followed here is the NIST ThermoML archive (doi:10.1021/acs.jced.7b00507).

SMILES strings stand for the structures. ± gives the expanded uncertainty stated by the source.

The data set in a line: mn = molality of the nth substance listed, in mol/kg. The note with it: 100 kPa, Liquid, Pycnometric method.

As to `O=[N+]([O-])[O-].[K+]` [potassium nitrate] + O, the mass density (as a rule, the mass of a sample divided by its volume) amounted to 1167 ± 12 kg/m3 (293.15 K, m1 = 3.129); 1217.1 ± 12 kg/m3 (303.15 K, m1 = 4.532); 1269.4 ± 13 kg/m3 (313.15 K, m1 = 6.615); 1321 ± 14 kg/m3 (323.15 K, m1 = 8.465).
Regarding `[K+].[O]=[V](=[O])[O-]` [potassium vanadate] + O, the mass density is, setting by setting: (293.15 K, m1 = 0.6199) 1060.4 ± 11 kg/m3; (303.15 K, m1 = 0.8756) 1081.6 ± 11 kg/m3; (313.15 K, m1 = 1.222) 1111 ± 11 kg/m3; (323.15 K, m1 = 1.908) 1156 ± 12 kg/m3.
